Experimental data published in PMC6270778, “Novel Cinnamic Acid Derivatives as Antioxidant and Anticancer Agents: Design, Synthesis and Modeling Studies” (Molecules, 2014).
Marks after values point to notes of the source that are not given here.

Key:
[1] = Determination of RM values by reversed phase TLC (RPTLC); type: physicochemical; details: CH3OH:H2O:CH3COOH (77:23:0.1), average of at least 10 measurements
Protocol: Lipophilicity represents a significant physicochemical property for the absorption, distribution, metabolism and excretion of drugs (ADME properties). In this study the experimentally lipophilicity as RM values is measured by the reverse-phase thin layer chromatography (RPTLC), a reliable, fast and convenient method. The obtained values were compared with the corresponding log P values in n-octanol-buffer estimated by ClogP [33, 34]. It is well known that lipophilicity plays an important role at the ADME properties. In the present study additionally, it influences the radical scavenging property (i.e., in an aqueous phase) or the chain-breaking antioxidant activity (i.e., in biological membranes).
Reversed phase TLC (RPTLC) was studied using silica gel plates saturated with 55% (v/v) liquid paraffin in light petroleum ether and methanol/water mixture (77/23, v/v) containing 0.1% of acetic acid was used as a mobile phase. Spots were detected under UV light or by iodine vapours. RM values were determined by the corresponding Rf values (from ten individual measurements) using the equation RM = log [(1/Rf) − 1] [23, 24, 25].

[2] = Inhibition of linoleic acid peroxidation (AAPH); details: 0.1 mM
Text: For the in vitro study of the free radical production, azo compounds generating free radicals through spontaneous thermal decomposition are used. The water soluble 2,2'-azobis(2-amidinopropane) hydrochloride (AAPH) is recommended as appropriate for measuring radical-scavenging activity in vitro. The activity of the peroxyl radicals produced by the action of AAPH greatly resembles to cellular activities such as lipid peroxidation. The phenyl substituted acids presented remarkable activity at 0.1 mM concentration (84%–92%) compared to the non-substituted derivatives (20%–63%).
For initiating the free radical, 2,2'-azobis(2-amidinopropane) dihydrochloride (AAPH) is used. The final solution in the UV cuvette consisted of ten microliters of the 16 mM linoleate sodium dispersion 0.93 mL of 0.05 M phosphate buffer, pH 7.4, thermostatted at 37 °C. 50 μL of 40 mM AAPH solution was added as a free radical initiator at 37 °C under air and 10 μL of the tested compounds. The oxidation of linoleic acid sodium salt results a conjugated diene hydroperoxide. The reaction is monitored at 234 nm (Table 3).

[3] = tested on: A-549 (lung); experiment: SRB cytotoxicity assay, A-549; type: cell-based; details: Homo sapiens, A549, 50% growth inhibition, 48 h exposure
Protocol: (§1) Human cancer cell lines used as targets were HT-29 (colon), A-549 (lung), OAW-42 (ovarian), MDA-MB-231 (breast), HeLa (immortal cells from cervical cancer). All cells were obtained from the American Type Culture Collection (ATCC). Cells were routinely grown as monolayer cell cultures in T-75 flasks (Costar) in an atmosphere containing 5% CO2 in air and 100% relative humidity at 37 °C and subcultured twice a week, restricting the total number of cell passages below 20. The culture medium used was Dulbecco’s modified Eagle’s medium (DMEM, Gibco, Grand Island, NY, USA) supplemented with 10% fetal bovine serum (Gibco), 2 mM glutamine (Sigma), 100 μg/mL streptomycin and 100 IU/mL penicillin.
(§2) Cell passages were carried out by detaching adherent, logarithmically growing cells after addition of 2–3 mL of a mixture of 0.05% solution of trypsin (Gibco, 1:250) in phosphate-buffered saline (PBS) with 0.02% EDTA and incubation for 3–5 min at 37 °C. For the experiments, cells were plated (100 μL containing 10,000 cells/well) in 96-well flat-bottom microplates microplates (Costar-Corning, Acton, MA 01720, USA) so that untreated cells were in exponential growth phase at the time of cytotoxicity evaluation. Cells were left for 24 h at 37 °C to resume exponential growth and stabilization and afterwards exposed to tested agents for 48 h by the addition of an equal volume (100 μL) of either complete culture medium (control wells), or twice the final drug concentrations diluted in complete culture medium (test wells). Drug cytotoxicity was measured by means of the SRB colorimetric assay estimating the survival fractions (SF) as the percent of control (untreated cells) absorbance. The SRB assay was carried out as previously described and modified by our group. In brief, culture medium was aspirated prior to fixation using a microplate-multiwash device (Tri-Continent Scientific, Inc., Grass Valley, CA, USA) and 50 μL of 10% cold (4 °C) trichloroacetic acid (TCA) were gently added to the wells. Microplates were left for 30 min at 4 °C, washed five times with deionized water and left to dry at room temperature for at least 24 h. Subsequently, 70 μL of 0.4% (w/v) sulforhodamine B (Sigma) in 1% acetic acid solution were added to each well and left at room temperature for 20 min. SRB was removed and the plates were washed five times with 1% acetic acid before air drying. Bound SRB was solubilized with 200 μL of 10 mM unbuffered Tris-base solution and plates were left on a plate shaker for at least 10 min. Absorbance was read in a 96-well plate reader at 492 nm subtracting the background measurement at 620 nm. The test optical density (OD) value was defined as the absorbance of each individual well, minus the blank value (“blank” is the mean optical density of the background control wells, n = 8). Mean values and the coefficient of variation (CV) from six replicate wells were calculated automatically. Results were expressed as the “survival fraction” (SF), as shown below.
(§3) For each tested compound a dose-effect curve was produced. Sextuplicate determinations gave a CV (Standard Deviation/mean %) of much less than 10%, resulting in standard error (SE) which was very low in all cases. The data showing inhibition of cellular growth are expressed as the fraction of cells that remains unaffected (fu) (survival fraction, SF), which is derived from the following equation: fu = ODx/ODc where ODx and ODc represent the test and the control optical density, respectively.

[4] = tested on: HeLa (immortal cells from cervical cancer); experiment: SRB cytotoxicity assay, HeLa; type: cell-based; details: Homo sapiens, 50% growth inhibition, 48 h exposure
Protocol: as §1, §2, §3

[5] = Hydroxyl radicals scavenging activity (Fe3+/ascorbic acid system, competition with DMSO); details: 0.1 mM; no = no action under the used experimental conditions
Protocol: Thus we evaluated our acids for their competition with DMSO for ˙OH radicals was measured, hydroxyl radicals were produced by the Fe^3+/ascorbic acid system and expressed as percent inhibition of formaldehyde formation at 0.1 mM concentration (Table 3).
The hydroxyl radicals were produced by the Fe ^3+/ascorbic acid system. EDTA (0.1 mM), Fe ^3+ (167 μM), DMSO (33 mM) in phosphate buffer (50 mM, pH 7.4), the tested compounds (0.1 mM) and ascorbic acid (10 mM) were mixed in test tubes. The solutions were incubated at 37 °C for 30 min. The reaction was stopped by CCl3COOH (17% w/v) (Table 4) and the % scavenging activity of the tested compounds for hydroxyl radicals was given.

[6] = tested on: HT-29 (colon); experiment: SRB cytotoxicity assay, HT-29; type: cell-based; details: Homo sapiens, 50% growth inhibition, 48 h exposure
Protocol: as §1, §2, §3

[7] = tested on: OAW-42 (ovarian); experiment: SRB cytotoxicity assay, OAW-42; type: cell-based; details: Homo sapiens, 50% growth inhibition, 48 h exposure
Protocol: as §1, §2, §3

RM (±SD) [1]	Structure (SMILES)	AAPH (%) (±SD), inhibition of linoleic acid peroxidation [2]	IC50 [3] [µM]	IC50 [4] [µM]	HO (%) (±SD) [5]	IC50 [6] [µM]	IC50 [7] [µM]
0.566 (0.001) ^e	O=C(O)C(=CC(Br)=Cc1ccccc1)c1ccccc1 [Compound 4i, 4-Bromo-2,5-diphenylpenta-2,4-dienoic acid]	88 ± 1.8	210 ± 1	80 ± 0.9	no	> 240	174 ± 1.8
−0.847 (0.044) ^e	O=C(O)C=CC(Br)=Cc1ccccc1 [Compound 4ii, 4-Bromo-5-phenylpenta-2,4-dienoic acid]	63 ± 1.1	173.5 ± 1.4	30 ± 0.4	100 ± 1.8%	54 ± 1.1	63.5 ± 0.8

Second part, the compound before the results:

Structure (SMILES)	RM (±SD) [1]	AAPH (%) (±SD), inhibition of linoleic acid peroxidation [2]	IC50 [3] [µM]	IC50 [4] [µM]	HO (%) (±SD) [5]	IC50 [6] [µM]	IC50 [7] [µM]
N#Cc1ccc(C=C(C(=O)O)c2ccccc2)cc1 [Compound 1i, 3-(4-Cyanophenyl)-2-phenylacrylic acid]	−0.895 (0.004) ^e	92 ± 1.2	> 240	> 240	no	> 240	> 240
N#Cc1ccc(C=CC(=O)O)cc1 [Compound 1ii, 3-(4-Cyanophenyl)acrylic acid]	−0.972 (0.032) ^e	20 ± 0.1	> 240	> 240	no	> 240	> 240
O=C(O)C(=CC=Cc1ccc([N+](=O)[O-])cc1)c1ccccc1 [Compound 2i, 5-(4-Nitrophenyl)-2-phenylpenta-2,4-dienoic acid]	−0.706 (0.062) ^e	89 ± 0.9	134 ± 1.6	118 ± 1.4	33 ± 0.8%	141 ± 1.8	160 ± 1.1
O=C(O)C=CC=Cc1ccc([N+](=O)[O-])cc1 [Compound 2ii, 5-(4-Nitrophenyl)penta-2,4-dienoic acid]	−0.868 (0.019) ^e	29 ± 0.7	> 240	240 ± 1.6	no	> 240	> 240
O=C(O)C(=CC=Cc1ccccc1)c1ccccc1 [Compound 3i, 2,5-Diphenylpenta-2,4-dienoic acid]	0.987 (0.018) ^e	84 ± 1.4	> 240	> 240	81 ± 1.9%	> 240	> 240
O=C(O)C=CC=Cc1ccccc1 [Compound 3ii, 5-Phenylpenta-2,4-dienoic acid]	−0.893 (0.002) ^e	30 ± 1.0	> 240	> 240	81 ± 1.2%	> 240	> 240
